What was measured:
[1] = target: BCL-2 (Homo sapiens, UniProt P10415); settings: cited from earlier work
[2] = target: BCL-XL (Homo sapiens, UniProt Q07817); settings: cited from earlier work
[3] = target: T1, BCL-w (Homo sapiens, UniProt Q92843); settings: cited from earlier work
T1 sequence (Q92843 1-193): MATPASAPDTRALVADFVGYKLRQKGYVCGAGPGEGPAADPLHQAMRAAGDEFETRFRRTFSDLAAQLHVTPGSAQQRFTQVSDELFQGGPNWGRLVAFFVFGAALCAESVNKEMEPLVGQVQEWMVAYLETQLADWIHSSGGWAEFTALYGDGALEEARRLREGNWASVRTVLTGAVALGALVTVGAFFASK

[4] = test system: MWCL-1 cells; assay: IL-6-mediated IgM secretion in MWCL-1 cells (ELISA); assay type: cell-based; settings: exogenous IL-6 (FIG. 1F)
Text: (§1) The IgM levels were quantitated using a human IgM Enzyme-linked immunosorbent assay (ELISA) kit (Abcam, #ab214568) according to the manufacturer's instructions. IL-6 levels were quantitated using an IL-6 ELISA MAX™ kit (BioLegend, #430515) per manufacturer's recommendations. For all ELISA kits, plates were developed with 3,3′,5,5′-tetramethylbenzidine (TMB) development solution or a biotinylated antihuman IL-6 detection antibody/avidin horseradish peroxidase (HRP) solution. The reaction was stopped with the stop solution, and absorbance was read at 450 nm with a microplate reader (Synergy™ HT, BioTek Instruments).

[5] = test system: MWCL-1 cells; assay: Apoptosis of MWCL-1 cells in coculture with HS-27A BMSCs; assay type: cell-based; settings: for % apoptotic cells: with BMSC (HS-27a) (FIG. 13A)
Protocol: (§2) BMSCs were cultured in 96-, 48-, or 24-well plates until 90% confluence. MWCL-1 cells (density≈2×10^5 cells/mL) were pretreated with indicated concentration of mavorixafor together with indicated concentrations of B-cell-targeted inhibitors in medium containing 4% FBS for 1 hour and transferred to the BMSC monolayer. Cells were coincubated for 48 or 72 hours followed by measurement of cell viability, apoptosis, IgM, and IL-6 release.
(§3) Cells were washed with PBS, resuspended in Annexin V binding buffer (BioLegend, #422201), and stained with Alexa Fluor® 647 Annexin V (BioLegend, #640943), propidium iodide (BD Pharmingen, #51-66211E), and CD45 antibody (BioLegend, #368502) for 15 minutes at room temperature and analyzed by flow cytometry.

[6] = test system: MWCL-1 cells; assay: Apoptosis of MWCL-1 cells in monoculture (Annexin V flow cytometry); assay type: cell-based
Protocol: BMSCs were cultured in 96-, 48-, or 24-well plates until 90% confluence. […] Cells were coincubated for 48 or 72 hours followed by measurement of cell viability, apoptosis, IgM, and IL-6 release.
as §3

[7] = test system: MWCL-1 cells; assay: Sensitivity of MWCL-1 cells in coculture with HS-5 BMSCs (apoptosis, IgM); assay type: cell-based; settings: HS-5 BMSC coculture vs monoculture (FIG. 10A-D)
Protocol: as §2, §1, §3

[8] = Solubility of mavorixafor; assay type: physicochemical
[9] = test system: MWCL-1 cells; assay: Adhesion assay of MWCL-1 cells to BMSC monolayer; assay type: cell-based; settings: pretreatment, 4 hours (FIG. 3A)
Protocol: MWCL-1 cells were labeled with 1 μM Calcein AM. After 10 minutes at 37° C., cells were washed, resuspended in medium containing 1% FBS, and treated with compounds for 30 minutes (2.25× 10^5 cells/mL). MWCL-1 cells were transferred to the BMSC monolayer. After 4 hours, nonadherent cells were removed by gently washing with phosphate-buffered saline (PBS). Remaining cells were harvested, resuspended in flow buffer (Hanks balanced salt solution+20 mM HEPES+0.5% […]) and analyzed by flow cytometry.

[10] = test system: MWCL-1 cells; assay: BMSC-induced IgM hypersecretion, MWCL-1/HS-27A coculture (ELISA); assay type: cell-based
Protocol: as §1, with “BMSCs were cultured in 96-, 48-, or 24-well plates until 90% confluence. […] Cells were coincubated for 48 or 72 hours followed by measurement of cell viability, apoptosis, IgM, and IL-6 release. The IgM” for “The IgM”

[11] = test system: CXCL12-induced Ca2+ mobilization in MWCL-1 cells; assay: Calcium mobilization assay (Fluo-4 AM); assay type: cell-based; settings: dose-dependent (FIG. 3D)
Protocol: MWCL-1 cells (2×10^5 cells/well) were seeded in transparent bottom, black 96-well plates coated with poly-L-lysine (BioCoat®, Corning) and serum-starved (medium with 1% FBS) for 24 hours. Medium was removed and cells were loaded with 100 μL of fluo-4 AM (3 μM, Invitrogen, #F14201) dye solution for 45 minutes at 37° C. Subsequently, 100 μL of assay buffer alone or assay buffer with compound dilutions was added, and the plates were equilibrated in the plate reader for an additional 20 minutes at 37° C. The CXCL12 was injected with simultaneous measurement of fluorescent signal (FlexStation® 3 Multi-Mode Microplate Reader, Molecular Devices). Raw traces were analyzed in SoftMax®Pro 7 Software (Molecular Devices). The arbitrary units were calculated as the difference between maximal and minimal signal after treatment injection, normalized to the baseline signal before injection.

[12] = test system: MWCL-1 cells; assay: Transwell migration assay; assay type: cell-based
Protocol: Cell migration toward CXCL12 gradient or BMSC monolayer was determined using the Transwell migration assay. MWCL-1 cells were stained with 500 nM Calcein AM (Invitrogen, #C1430) and preincubated with mavorixafor for 15 minutes before transfer (5×10^5 cells) to an upper well of a […] pore size Transwell® (Corning, #3421). […] Wells without CXCL12 were treated with 10 μM LIT-927 (Selleck Chemicals, #S8813), a neutraligand of CXCL12, to serve as background control. After 4 hours of incubation, cells that migrated to the lower chambers were collected and resuspended in Dulbecco's phosphate-buffered saline (DPBS) containing Precision Count Beads™ (BioLegend, #424902). Migrated cells and counting beads were counted by flow cytometry

[13] = Terminal half-life of mavorixafor; settings: in vivo
[14] = patients with WHIM syndrome; cited from earlier work
[15] = test system: WM cell-BMSC coculture; assay: IL-6 release in WM/BMSC coculture model (ELISA); assay type: cell-based; settings: WM cell-BMSC coculture (FIG. 12)
Protocol: as §1, with “BMSCs were cultured in 96-, 48-, or 24-well plates until 90% confluence. […] Cells were coincubated for 48 or 72 hours followed by measurement of cell viability, apoptosis, IgM, and IL-6 release. The IgM” for “The IgM”

[16] = test system: cleavage of caspase-3 and PARP in MWCL-1 cells; assay: Immunoblotting of apoptotic markers; assay type: cell-based; settings: MWCL-1 monoculture (FIG. 4G)
Protocol: Whole cells were lysed by radioimmunoprecipitation assay (RIPA) lysis buffer (Sigma-Aldrich, #R0278) with protease inhibitor cocktail (Roche Custom Biotech, #11697498001). Lysates were separated by sodium dodecyl sulfate polyacrylamide gel-electrophoresis (SDS-PAGE) electrophoresis and transferred to Trans-Blot® Turbo™ Mini PVDF Transfer Packs (Bio-Rad). Membranes were incubated with primary antibodies: anti-poly adenosine diphosphate (ADP)-ribose polymerase (PARP) (1:1000, Cell Signaling, #9542); Anti-Caspase 3 (1:1000, Cell Signaling, #9662) and antitubulin (1:5000, R&D, #MAB9344). Secondary HRP-conjugated antibodies (Abcam) were used at 1:10.000 dilution. Membranes were developed with enhanced chemiluminescence reagent (Amersham™ ECL Prime Western Blotting Detection Reagent, GE Healthcare) on LAS4000 gel documentation system.

[17] = test system: HS-27A and HS-5 BMSCs; assay: Apoptosis of BMSCs cocultured with WM cells; assay type: cell-based; settings: WM cell-BMSC coculture, mavorixafor alone (FIG. 11A-B)
Protocol: as §3, with “BMSCs were cultured in 96-, 48-, or 24-well plates until 90% confluence. […] Cells were coincubated for 48 or 72 hours followed by measurement of cell viability, apoptosis, IgM, and IL-6 release. Cells” for “Cells”

[18] = test system: ALL cells; settings: cited from earlier work
[19] = test system: MWCL-1 cells; assay: Cell viability of MWCL-1 cells (CellTiter-Glo); assay type: cell-based; settings: tested concentrations, 4 hours, data not shown
[20] = target: T2, BTK (Homo sapiens, UniProt Q06187); settings: patients with relapsed/refractory CLL and other B-cell disorders; cited from earlier work
T2 construct: endogenous in cells

[21] = test system: WM mouse xenograft; settings: cited from earlier work
[22] = test system: CXCR4 cell surface expression in MWCL-1 cells; assay: CXCR4 cell surface expression in MWCL-1 cells (flow cytometry); assay type: cell-based; settings: MWCL-1 cocultured with HS-27A BMSCs (FIG. 2B)
Protocol: Flow experiments were performed with the CytoFLEX S Flow Cytometer (Beckman Coulter). Samples were analyzed using FCS Express Software (De Novo Software).
[…] Cells were stained with CXCR4 antibody (BD Pharmigen, #555976) and measured by flow cytometry.

[23] = test system: human WM cells; settings: mouse, in vivo; cited from earlier work
[24] = absence of bone marrow stroma, 72 hours (FIG. 15)

BCL-2, sequence (P10415 whole entry): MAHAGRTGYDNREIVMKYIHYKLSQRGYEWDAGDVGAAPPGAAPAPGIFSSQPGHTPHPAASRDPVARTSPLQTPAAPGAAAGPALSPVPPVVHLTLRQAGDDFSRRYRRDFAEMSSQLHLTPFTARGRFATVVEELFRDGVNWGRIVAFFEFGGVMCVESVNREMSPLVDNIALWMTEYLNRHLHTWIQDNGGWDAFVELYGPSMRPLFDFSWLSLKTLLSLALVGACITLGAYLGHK
T2 sequence (Q06187 whole entry): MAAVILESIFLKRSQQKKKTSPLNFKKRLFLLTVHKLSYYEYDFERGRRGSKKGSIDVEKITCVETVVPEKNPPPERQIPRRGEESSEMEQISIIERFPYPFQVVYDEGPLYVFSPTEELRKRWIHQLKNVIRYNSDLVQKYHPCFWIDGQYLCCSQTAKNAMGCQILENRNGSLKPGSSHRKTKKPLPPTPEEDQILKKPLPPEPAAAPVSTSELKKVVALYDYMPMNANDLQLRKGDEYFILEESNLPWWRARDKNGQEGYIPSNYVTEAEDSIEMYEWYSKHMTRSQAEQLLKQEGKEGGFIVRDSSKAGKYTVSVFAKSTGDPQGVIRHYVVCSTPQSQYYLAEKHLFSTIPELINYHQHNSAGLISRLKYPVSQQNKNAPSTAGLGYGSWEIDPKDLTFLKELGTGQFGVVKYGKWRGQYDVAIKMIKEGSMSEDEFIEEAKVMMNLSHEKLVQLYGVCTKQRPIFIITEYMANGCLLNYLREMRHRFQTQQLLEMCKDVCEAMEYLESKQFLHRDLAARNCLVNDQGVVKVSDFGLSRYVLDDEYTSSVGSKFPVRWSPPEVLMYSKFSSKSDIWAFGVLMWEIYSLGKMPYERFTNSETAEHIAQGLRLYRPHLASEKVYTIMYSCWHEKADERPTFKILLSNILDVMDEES
BCL-XL, sequence (Q07817 whole entry): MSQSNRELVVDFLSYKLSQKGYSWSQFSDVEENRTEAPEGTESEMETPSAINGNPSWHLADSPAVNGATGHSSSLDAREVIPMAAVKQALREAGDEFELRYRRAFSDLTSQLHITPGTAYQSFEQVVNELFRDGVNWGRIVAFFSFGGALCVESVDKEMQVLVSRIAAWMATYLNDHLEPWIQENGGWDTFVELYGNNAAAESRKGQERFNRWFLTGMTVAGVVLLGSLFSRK

CN(C)CC[C@H](CSc1ccccc1)Nc1ccc(S(=O)(=O)NC(=O)c2ccc(N3CCN(Cc4ccccc4-c4ccc(Cl)cc4)CC3)cc2)cc1[N+](=O)[O-] [ABT-737]
binding affinity to BCL-2 [1]: < 1 nmol/L
binding affinity to BCL-XL [2]: < 1 nmol/L
binding affinity to BCL-w [3]: < 1 nmol/L

CN(CC(=O)N(Cc1ccc(C2CCCCC2)cc1)c1ccc(C(=O)O)c(O)c1)S(=O)(=O)c1c(F)c(F)c(F)c(F)c1F [BP-1-102]
IL-6-mediated IgM secretion [4]: inhibited

C=CC(=O)N1CCC[C@@H](n2nc(-c3ccc(Oc4ccccc4)cc3)c3c(N)ncnc32)C1 [Ibrutinib, 1-[(3R)-3-[4-amino-3-(4-phenoxyphenyl)-1Hpyrazolo[3,4-d]pyrimidin-1-yl]-1-piperidinyl]-2-propen-1-one, reference compound]
% apoptotic cells [5]: neither Ibrutinib nor Tocilizumab as a single therapy increased
% apoptotic cells ([6]; absence of BMSC (FIG. 13A)): approximately 60%
sensitivity of MWCL-1 cells to the drug in HS-5 BMSC coculture [7]: reduced the sensitivity

CC(C)C[C@H](NC(=O)CNC(=O)c1cc(Cl)ccc1Cl)B(O)O [Ixazomib, reference compound]
killing / apoptosis of MWCL-1 tumor cells [6, 24]: Kills

NCCCCN(Cc1nc2ccccc2[nH]1)[C@H]1CCCc2cccnc21 [Mavorixafor]
solubility ([8]; aqueous buffer, pH range 3.0 to 8.0): > 100 mg/mL
Solubility in water ([8]; water): only slightly soluble
sensitivity of MWCL-1 cells to apoptosis by B-cell-targeted inhibitors in presence of BMSCs ([5]; HS-27A BMSC coculture (FIG. 5A-F)): restored the sensitivity
adhesion of WM cells to BMSCs [9]: dose-dependent decrease
BM stroma-induced IgM hypersecretion, combination with ixazomib ([10]; BMSC: HS-27A cells, 72 hours (FIG. 16)): Synergizes
BMSC-induced IgM hypersecretion ([10]; HS-27A coculture, 48 or 72 hours (FIG. 6A-G)): inhibited
CXCL12-mediated Ca2+ mobilization [11]: blocked
migration toward BMSC-secreted CXCL12 ([12]; HS-27A BMSCs in lower chamber (FIG. 3C)): significantly inhibited
migration toward a CXCL12 gradient ([12]; pretreatment of MWCL-1 cells (FIG. 3B)): significantly inhibited
half-life [13]: 12 to 24 h
apoptosis efficacy of ixazomib when mavorixafor is added [6, 24]: Enhances
apoptosis of MWCL-1 cells, single agent ([6]; monoculture (FIG. 8A-F, FIG. 4A-F)): minor increase
tolerability, treatment-related serious adverse events [14]: well tolerated, with no treatment-related serious adverse events
IL-6 release [15]: no significant effect
proteolytic cleavage of caspase-3 and PARP [16]: minor effects
apoptosis of BMSCs [17]: much weaker effects
CXCL12-induced signaling pathway in ALL cells [18]: effectively block
preestablished adhesion of ALL cells to stroma [18]: disrupt
sensitivity of ALL cells to vincristine and nilotinib [18]: increase sensitivity
stromal-induced migration of ALL cells [18]: block
cytotoxicity in MWCL-1 cells [19]: not sufficient to induce cytotoxicity

NC(=O)c1ncc(N2CCCCC2)nc1Nc1ccc(C2CCN(C[C@H]3CCN(c4ccc5c(c4)C(=O)N(C4CCC(=O)NC4=O)C5=O)C3)CC2)cc1 (stereo partly shown) [NX-2127]
degradation of BTK [20]: clinically meaningful degradation

CCc1cc(O)c(F)cc1-c1ccc2c(-c3nc4c([nH]3)CCN(C(=O)c3cnc(N5CCCCC5)cn3)C4)n[nH]c2c1 [PF-06263276]
IL-6-mediated IgM secretion [4]: inhibited

Tocilizumab: IL-6R antibody tocilizumab (Actemra, Genentech)
% apoptotic cells [5]: neither Ibrutinib nor Tocilizumab as a single therapy increased
IgM secretion [21]: reduces
tumor growth [21]: reduces
IL-6-mediated IgM secretion [4]: inhibited
increase of CXCR4 surface expression by HS-27A BMSC coculture [22]: inhibited

ulocuplumab: monoclonal anti-CXCR4 antibody
tumor infiltration in BM, spleen, and lymph nodes [23]: reduced
